Experimental data as given in patent publication US10315996B2, “ROR gamma (RORγ) modulators” (LEAD PHARMA HOLDING B.V., priority 2015, dated 2019).

How the values were obtained:
[1] = molecular target: T1, RORγ (Homo sapiens, UniProt P51449); assay: RORγ GAL4 reporter gene assay; type: cell-based; settings: inhibition of RORγ activity, GAL4-RORγ-LBD luciferase reporter in 293FT cells, overnight incubation; read-out: mean pIC50 (converted)
T1 construct: expressed in transfected cells; host or cells: 293FT cells (Invitrogen), expression vector pFN26A (Promega)
T1 sequence (P51449 269-508 limits assumed): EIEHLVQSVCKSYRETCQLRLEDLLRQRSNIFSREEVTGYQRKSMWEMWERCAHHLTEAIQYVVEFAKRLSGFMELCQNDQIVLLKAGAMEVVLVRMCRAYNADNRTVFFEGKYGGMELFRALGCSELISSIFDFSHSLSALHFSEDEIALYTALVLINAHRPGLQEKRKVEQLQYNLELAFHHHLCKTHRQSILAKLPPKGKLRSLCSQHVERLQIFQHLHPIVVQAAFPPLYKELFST
Procedure, shortened: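 293FT cells were transiently co-transfected with GAL4-DBD–RORγ-LBD (or GAL4-VP16 control) and a 9×UAS luc2P reporter, then plated at 60,000 cells/well. Compound was added at final 0.2% DMSO for 16-24 h at 37 °C, and inhibition was measured by firefly luciferase luminescence.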

[2] = test system: IL-17A production in anti-CD3/anti-CD28 stimulated peripheral blood mononuclear cells (PBMCs); assay: Peripheral blood mononuclear cell (PBMC) IL-17 assay; type: cell-based; settings: Homo sapiens, 120 h, inhibition of IL-17A production, PBMCs isolated from human blood, 5 days incubation, IL-17 ELISA, read-out: mean pIC50 (converted)
Procedure: PBMC IL-17 Assay Description
This assay is designed to measure the levels of IL-17A secreted from anti-CD3/anti-CD28 stimulated PBMCs with the aim of measuring RORγ mediated inhibition of IL-17A production.
The assay medium consists of 90% RPMI 1640 (Lonza), 10% heat inactivated fetal bovin serum (FBS, Lonza) and 100 U/mL penicillin/streptomycin solution.
Anti-CD3 antibody (BD Pharmingen) was diluted to 10 μg/ml in PBS (Lonza). 30 μL of 10 μg/ml anti-CD3 solution was added to the inner 60 wells, excluding any negative control wells, of a 96-well cell culture treated U-bottom plate (Greiner). Plates were incubated overnight (16-24 hours) at 37° C. and 5% CO2.
Peripheral blood mononuclear cells were separated from buffy coats (Sanquin) using Ficoll-Paque PREMIUM separation medium (GE Healthcare Life Sciences) according to manufacturer's protocol and re-suspended in assay medium at 37° C.
Test compounds were diluted, starting from a 10 mM dimethylsulfoxide (DMSO) stock solution, to serial dilutions in DMSO at 200× the final test concentration. Subsequently, these solutions were diluted in two dilution steps in assay medium to 10× the final test concentration. The DMSO concentration of the 10× test compound solution was 5%.
Anti-CD28 antibody (BD Pharmingen) was diluted to 20 μg/mL in PBS. The PBMCs were diluted to a concentration of 2.5×10^6 cells/mL in assay medium at 37° C.
For compound screening, the anti-CD3 coated plates were washed three times with PBS, the wells were subsequently aspirated using vacuum. To each screening well 80 μL of the PBMC suspension, 10 μL of the anti-CD28 solution and 10 μL of the 10× test compound solution was added, resulting in the final test concentration with 0.5% DMSO. All outer wells were filled with assay medium to prevent evaporation. Plates were incubated for 5 days at 37° C. and 5% CO2.
After incubation the plates were spun down at 1500 rpm for 4 minutes and the supernatant was collected. Subsequently, the IL-17A levels in the supernatants was determined using an IL-17 ELISA kit (human IL-17 DuoSet, R&D systems) according to manufacturer's protocol.
The half maximum inhibitory concentration ([…]) values for the test compounds were calculated from the IL-17A signal using GraphPad Prism software (GraphPad Software).

| Compound | IC50 [1] [µM] | IC50 [2] [µM] |
| --- | --- | --- |
| CCCN(CC1CC1)C(=O)c1ccc(NC(=O)Cc2ccc(S(=O)(=O)CC3CC3)cc2)cc1 [Example 9, 4-[2-(4-cyclopropylmethanesulfonylphenyl)acetamido]-N-(cyclopropylmethyl)-N-propylbenzamide] | ≤ 0.1 | ≤ 1 |
| CCN(C(=O)c1ccc(NC(=O)Cc2ccc(S(=O)(=O)CC3CC3)cc2)cc1)c1ccon1 [Example 103, 4-[2-(4-cyclopropylmethanesulfonylphenyl)acetamido]-N-ethyl-N-(1,2-oxazol-3-yl)benzamide] | ≤ 0.01 | ≤ 1 |
| C[C@H](NC(=O)c1ccc(NC(=O)Cc2ccc(S(=O)(=O)CC3CC3)cc2)cc1)c1ccccc1F [Example 71, 4-[2-(4-cyclopropylmethanesulfonylphenyl)acetamido]-N-[(1S)-1-(2-fluorophenyl)ethyl]benzamide] | ≤ 0.1 | ≤ 1 |
| CCN(C(=O)c1ccc(NC(=O)Cc2ccc(S(=O)(=O)NC3CC3)cc2)cc1)c1ccc(C)cc1 [Example 45, 4-{2-[4-(cyclopropylsulfamoyl)phenyl]acetamido}-N-ethyl-N-(4-methylphenyl) benzamide] | ≤ 0.01 | ≤ 1 |
| CC(C)(NC(=O)c1ccc(NC(=O)Cc2ccc(S(=O)(=O)CC3CC3)cc2)cc1)c1ccccc1 [Example 6, 4-[2-(4-cyclopropylmethanesulfonylphenyl)acetamido]-N-(2-phenylpropan-2-yl)benzamide] | ≤ 0.1 | ≤ 1 |
| CCN(C(=O)c1ccc(NC(=O)Cc2ccc(S(=O)(=O)CC3CC3)cc2)cc1Cl)c1ccccc1C [Example 129, 2-chloro-4-[2-(4-cyclopropylmethanesulfonylphenyl)acetamido]-N-ethyl-N-(2-methylphenyl)benzamide] | ≤ 0.01 |  |
| CC(C)(C)N(Cc1ccccc1)C(=O)c1ccc(NC(=O)Cc2ccc(S(=O)(=O)CC3CC3)cc2)cc1 [Example 113, N-benzyl-N-tert-butyl-4-[2-(4-cyclopropylmethanesulfonylphenyl)acetamido]benzamide] | ≤ 0.01 |  |
| CC(N(C(=O)c1ccc(NC(=O)Cc2ccc(S(=O)(=O)NC3CC3)cc2)cc1)c1ccccc1)C(F)(F)F (centres unmarked) [Example 148, 4-{2-[4-(cyclopropylsulfamoyl)phenyl]acetamido}-N-phenyl-N-(1,1,1-trifluoropropan-2-yl)benzamide] | ≤ 0.1 |  |
| CC(C)CN(CC(C)C)C(=O)c1ccc(NC(=O)Cc2ccc(S(=O)(=O)NC3CC3)cc2)cc1 [Example 62, 4-{2-[4-(cyclopropylsulfamoyl)phenyl]acetamido}-N,N-bis(2-methylpropyl)benzamide] | ≤ 1 |  |
| CCCN(C(=O)c1ccc(NC(=O)Cc2ccc(S(=O)(=O)CC3CC3)cc2)cc1)c1ccsc1 [Example 81, 4-[2-(4-cyclopropylmethanesulfonylphenyl)acetamido]-N-propyl-N-(thiophen-3-yl)benzamide] | ≤ 0.01 |  |
| COC(=O)C(C)(C)N(C(=O)c1ccc(NC(=O)Cc2ccc(S(=O)(=O)CC3CC3)cc2)cc1)c1ccccc1 [Example 145, methyl 2-(1-{4-[2-(4-cyclopropylmethanesulfonylphenyl)acetamido]phenyl}-N-phenylformamido)-2-methylpropanoate] | ≤ 0.01 |  |
| CCCN(C(=O)c1ccc(NC(=O)Cc2ccc(S(=O)(=O)CC3CC3)cc2)cc1)c1ccccc1 [Example 19, 4-[2-(4-cyclopropylmethanesulfonylphenyl)acetamido]-N-phenyl-N-propylbenzamide] | ≤ 0.01 |  |
